Experimental data published in US20070149465A1, “COMPOSITIONS AND METHODS FOR PREVENTION AND TREATMENT OF CACHEXIA” (priority 2005, published 2007).
Like-named read-outs stand apart in the source and are kept apart here.

Legend:
AH-inoculated rats = experiment: Rat AH130 Ascites Hepatoma Model of Cancer Cachexia, AH-inoculated rats; format: in vivo, female Wistar rats; details: for Carcass Weights Mean / Gastrocnemius Weights Mean / Heart Weights Mean: normalized to 100 g Day 5 Total Body Weight
Procedure: (§1) Following the method of Busquets et al (Busquets S, et al: Cancer Res 64:6725-31, 2004), female Wistar rats were inoculated (Day 0) intra-peritoneally (i.p.) with 2×10^7 cells/animal of Yoshida AH-130 ascites hepatoma (AH) cells. Control animals were inoculated with an equivalent amount of sterile saline solution. […] The animals were sacrificed on Day 5. Upon sacrifice, wet weights of heart and gastrocnemius muscle were determined. Carcass (after gastrocnemius, heart, and ascites removal) weight was also determined upon sacrifice.
(§2) Treatment Group=Inoculation Type/Vehicle, or Treatment Group=Inoculation Type/F(x)R(y) where, Inoculation Type is either AH or Saline, F is formoterol fumarate, R is roxithromycin, and the parenthetical values are formoterol fumarate and roxithromycin doses (i.p. in mg/kg).

[1] = Osmolality of formoterol filtrate in citrate buffers; format: physicochemical; details: 25° C.
[2] = for Formoterol solubility: 25° C.
[3] = cited from earlier work; for estimated shelf-life: compositions of Banerjee et al.; for rate constant of decomposition: 60° C., buffer 5 mM, ionic strength 0.05
Saline-inoculated rats = experiment: Rat AH130 experiments, saline-inoculated control rats given drug; format: in vivo, female Wistar rats
Procedure: as §1, §2

[4] = Exp 1 Group 3, AH, F 1, R 0 mg/kg i.p., Day 5
[5] = Exp 2 Group 7, AH, F 1, R 0 mg/kg i.p., Day 5
[6] = Exp 3 Group 13, AH, F 1, R 0 mg/kg i.p., Day 5
[7] = Exp 4 Group 18, AH, F 1, R 0 mg/kg i.p., Day 5, sample weight normalized to 100 g Day 5 Total Body Weight
[8] = Exp 2 Group 10, Saline, F 1, R 0 mg/kg i.p., Day 5, normalized to 100 g Day 5 Total Body Weight

## COc1ccc(C[C@@H](C)NC[C@H](O)c2ccc(O)c(NC=O)c2)cc1.COc1ccc(C[C@@H](C)NC[C@H](O)c2ccc(O)c(NC=O)c2)cc1.O=C(O)/C=C/C(=O)O [formoterol fumarate]
AH-inoculated rats; [4]
  Carcass Weights Mean: 95.35 g
  Gastrocnemius Weights Mean: 0.551 g
  Heart Weights Mean: 0.337 g
AH-inoculated rats; [5]
  Carcass Weights Mean: 89.7 g
  Gastrocnemius Weights Mean: 0.499 g
  Heart Weights Mean: 0.348 g
AH-inoculated rats; [6]
  Carcass Weights Mean: 93.1 g
  Gastrocnemius Weights Mean: 0.489 g
  Heart Weights Mean: 0.376 g
AH-inoculated rats; [7]
  Carcass Mean: 97.8
  Gastrocnemius Mean: 0.502
  Heart Mean: 0.367
AH-inoculated rats; Experiment 1, AH/F(1)R(0) group
  gastrocnemius muscle loss compared with AH/vehicle group: significantly less
[1]; 20 mM citrate, pH 4
  Formoterol Filtrate osmolality: 49 mOsm/kG
[1]; 20 mM citrate, pH 5
  Formoterol Filtrate osmolality: 56 mOsm/kG
[1]; 20 mM citrate, pH 6
  Formoterol Filtrate osmolality: 60 mOsm/kG
[1]; 20 mM citrate, pH 7
  Formoterol Filtrate osmolality: 66 mOsm/kG
[1]; 50 mM citrate, pH 4
  Formoterol Filtrate osmolality: 113 mOsm/kG
[1]; 50 mM citrate, pH 5
  Formoterol Filtrate osmolality: 130 mOsm/kG
[1]; 50 mM citrate, pH 6
  Formoterol Filtrate osmolality: 140 mOsm/kG
[1]; 50 mM citrate, pH 7
  Formoterol Filtrate osmolality: 146 mOsm/kG
[1]; 100 mM citrate, pH 4
  Formoterol Filtrate osmolality: 205 mOsm/kG
[1]; 100 mM citrate, pH 5
  Formoterol Filtrate osmolality: 249 mOsm/kG
[1]; 100 mM citrate, pH 6
  Formoterol Filtrate osmolality: 275 mOsm/kG
[1]; 100 mM citrate, pH 7
  Formoterol Filtrate osmolality: 278 mOsm/kG
[1]; 200 mM citrate, pH 4
  Formoterol Filtrate osmolality: 392 mOsm/kG
[1]; 200 mM citrate, pH 5
  Formoterol Filtrate osmolality: 473 mOsm/kG
[1]; 200 mM citrate, pH 6
  Formoterol Filtrate osmolality: 527 mOsm/kG
[1]; 200 mM citrate, pH 7
  Formoterol Filtrate osmolality: 543 mOsm/kG
[2]; 20 mM citrate, pH 4
  Formoterol solubility: 2710 µg/mL
[2]; 20 mM citrate, pH 5
  Formoterol solubility: 2350 µg/mL
[2]; 20 mM citrate, pH 6
  Formoterol solubility: 2470 µg/mL
[2]; 20 mM citrate, pH 7
  Formoterol solubility: 2330 µg/mL
[2]; 50 mM citrate, pH 4
  Formoterol solubility: 3690 µg/mL
[2]; 50 mM citrate, pH 5
  Formoterol solubility: 2770 µg/mL
[2]; 50 mM citrate, pH 6
  Formoterol solubility: 2780 µg/mL
[2]; 50 mM citrate, pH 7
  Formoterol solubility: 2920 µg/mL
[2]; 100 mM citrate, pH 4
  Formoterol solubility: 3010 µg/mL
[2]; 100 mM citrate, pH 5
  Formoterol solubility: 2690 µg/mL
[2]; 100 mM citrate, pH 6
  Formoterol solubility: 2870 µg/mL
[2]; 100 mM citrate, pH 7
  Formoterol solubility: 2600 µg/mL
[2]; 200 mM citrate, pH 4
  Formoterol solubility: 3690 µg/mL
[2]; 200 mM citrate, pH 5
  Formoterol solubility: 2900 µg/mL
[2]; 200 mM citrate, pH 6
  Formoterol solubility: 2720 µg/mL
[2]; 200 mM citrate, pH 7
  Formoterol solubility: 2840 µg/mL
[2]; citrate buffer concentrations between 20 and 200 mM at pH 4 to pH 7
  solubility: > 1000 µg/mL
[3]; 5° C.
  estimated shelf-life: about 6.2 years
[3]; 25° C.
  estimated shelf-life: about 7.5 months
[3]; pH 3
  rate constant of decomposition: approximately 0.62 day^1
[3]; pH 4
  rate constant of decomposition: ~0.11 day^1
[3]; pH 5
  rate constant of decomposition: ~0.044 day^1
[3]; pH 7
  rate constant of decomposition: ~0.55 day^1
Saline-inoculated rats; [8]
  Carcass Weights Mean: 97.6 g
  Gastrocnemius Weights Mean: 0.613 g
  Heart Weights Mean: 0.410 g
Saline-inoculated rats; Experiment 2, Saline/F(1)R(0) group
  gastrocnemius muscle weights compared with Saline/vehicle group: approximately the same
